# Experimental data published in article PMC12479633, “A Phase IIa, Single-Blind, Placebo-Controlled, Parallel-Group Study to Assess Safety, Tolerability, and Pharmacokinetics/Pharmacodynamics of Brensocatib in Adults with Cystic Fibrosis” (Clinical Pharmacokinetics, 2025).
# Read-outs that look alike come from different tables or passages of the source. Marks after values point to notes of the source that are not given here.
# Experiments:
# [1] = Plasma pharmacokinetics of brensocatib in adults with CF, once-daily oral dosing for 28 days (noncompartmental analysis); type: in vivo, human; details: for AUC0–24 / D, geometric mean / AUClast / D, geometric mean / Cmax / D, geometric mean: dose-normalized
# Description: This was a phase IIa, single-blind, randomized, placebo-controlled trial with a parallel-group, multiple-dose design aimed at evaluating the PK, PD, safety, and tolerability of brensocatib in adults with CF (NCT05090904).
# Participants were assigned to receive a once-daily dose of brensocatib (10 mg, 25 mg, or 40 mg) or placebo for 28 days.
# Plasma PK samples were collected on days 1 (at predose and 0.5, 1, 2, 4, 6, 8, and 24 h postdose), 14 (at predose and 2 h postdose), and 28 (at predose and 0.5, 1, 2, 4, 6, 8, 24, and 168 h postdose). The concentration of brensocatib in the plasma samples was analyzed using a validated liquid chromatography with tandem mass spectrometry method at an external service provider with a quantification range of 0.25–150 ng/mL. The overall intra- and inter-batch precision and accuracy were −2.7 to 2.0% and −1.8 to 0.8%, respectively. The long-term stability was established in human plasma for 346 days at −70 °C. The validation method details were published internally and stored within Insmed’s internal document repository.
# Descriptive statistics for continuous variables were calculated. Categorical variables were summarized by counts and by percentage of participants in the corresponding categories. No formal hypothesis was tested. Changes from baseline values were calculated and presented for both safety and efficacy data at each visit, including the percent change from baseline. PK parameters for brensocatib were assessed using noncompartmental analysis via Phoenix® WinNonlin® version 8.2 or later. SAS version 9.4 or higher was employed to prepare PK outputs.
# Analysis of dose dependency for brensocatib Cmax, AUC0–24, and area under the concentration–time curve from time 0 to last measurable concentration (AUClast) after single-dose administration and at steady state (day 28) were performed using a power law model. Dose normalization of Cmax, AUC0–24, and AUClast was performed only when a linear and dose-dependent trend was observed.
# [2] = system: proteinase 3 (PR3); assay: Active PR3 in blood (white blood cell pellets) of adults with CF; type: in vivo, human; details: for PR3, median % reduction relative to baseline: Blood, day 29
# Description: Blood PD samples were collected at screening; predose on days 1, 2, 14, 28, and 29; and at the follow-up visit (day 35). The samples were analyzed at an external service provider to determine the concentrations of active NE, PR3, and CatG in white blood cell pellets using validated enzymatic methods with quantification limits of 87.9 ng/mL for NE and PR3 and 70.3 ng/mL for CatG. The fit-for-purpose methods details were published internally and stored within Insmed’s document repository.
# If a participant experienced an intercurrent event, defined as use of antibiotics during an acute event that could influence NSP levels, the data were not included in the PD analysis. In assessing treatment-emergent adverse events (TEAEs), the “while-on-treatment” strategy was implemented, which encompassed the 28-day period following the final dose of study drug. With this strategy, data collected prior to the occurrence of the intercurrent event, that is, to discontinuation of brensocatib, were included in the analysis.
# [3] = 10 mg QD, Day 28, n = 8, mean (CV%)
# [4] = 25 mg QD, Day 28, n = 7, mean (CV%)
# [5] = 40 mg QD, Day 28, n = 8, mean (CV%)
# [6] = 40-mg dose compared to 10 mg, day 28
# [7] = 40-mg dose compared to 25 mg, day 28
# [8] = Day 1, with CFTR modulator, n 17
# [9] = Day 1, without CFTR modulator, n 7
# [10] = Day 28, with CFTR modulator, n 16
# [11] = Day 28, without CFTR modulator, n 6
# [12] = human, plasma, oral, 10 mg QD, Day 28, n = 8, mean (CV%)
# [13] = human, plasma, oral, 25 mg QD, Day 28, n = 7, mean (CV%)
# [14] = human, plasma, oral, 40 mg QD, Day 28, n = 8, mean (CV%)
smiles,measurement,setting,value
Cn1c(=O)oc2ccc(-c3ccc(C[C@@H](C#N)NC(=O)[C@@H]4CNCCCO4)cc3)cc21 [Brensocatib],Ctrough,"[1]; 10 mg QD, Day 1 column, presented for day 2, n = 8, mean (CV%)",46.3 (92.2) ng/mL
same,CL/F,[1]; [3],9.91 (28.6) L/h
same,Cmax,[1]; [3],90.1 (31.0) ng/mL
same,Ctrough,[1]; [3],27.2 (66.1) ng/mL
same,"Rac(AUC0–24), accumulation ratio based on AUC0–24",[1]; [3],1.38 (32.2)
same,"Rac(Cmax), accumulation ratio based on Cmax",[1]; [3],1.42 (22.6)
same,Cmax,"[1]; 25 mg QD, Day 1, n = 8, mean (CV%)",140 (24.1) ng/mL
same,Ctrough,"[1]; 25 mg QD, Day 1 column, presented for day 2, n = 8, mean (CV%)",39.3 (30.4) ng/mL
same,CL/F,[1]; [4],7.17 (30.1) L/h
same,"Rac(AUC0–24), accumulation ratio based on AUC0–24",[1]; [4],2.26 (29.2)
same,"Rac(Cmax), accumulation ratio based on Cmax",[1]; [4],1.72 (38.9)
same,Ctrough,"[1]; 25 mg QD, Day 28, n = 8, mean (CV%)",104 (43.6)^d ng/mL
same,Ctrough,"[1]; 40 mg QD, Day 1 column, presented for day 2, n = 8, mean (CV%)",108 (88.6) ng/mL
same,CL/F,[1]; [5],7.20 (42.8) L/h
same,Ctrough,[1]; [5],162 (41.8) ng/mL
same,"Rac(AUC0–24), accumulation ratio based on AUC0–24",[1]; [5],1.81 (37.4)
same,"Rac(Cmax), accumulation ratio based on Cmax",[1]; [5],1.43 (25.5)
same,least squares geometric mean ratio (LSGMR) in AUC0–24 (90% CI),[1]; [6],1.42 (1.04–1.92)
same,least squares geometric mean ratio (LSGMR) in Cmax (90% CI),[1]; [6],1.36 (1.02–1.82)
same,least squares geometric mean ratio (LSGMR) in AUC0–24 (90% CI),[1]; [7],1.02 (0.74–1.41)
same,least squares geometric mean ratio (LSGMR) in Cmax (90% CI),[1]; [7],1.25 (0.92–1.69)
same,"AUClast / D, ratio with/without CFTR modulator (90% CI)","[1]; Day 1, geometric mean ratio",1.21 (0.91–1.60)
same,"AUC0–24 / D, geometric mean",[1]; [8],80.7 ng·h/mL/mg
same,"AUClast / D, geometric mean",[1]; [8],80.7 ng·h/mL/mg
same,"Cmax / D, geometric mean",[1]; [8],6.7 ng/mL/mg
same,"AUC0–24 / D, geometric mean",[1]; [9],66.8 ng·h/mL/mg
same,"AUClast / D, geometric mean",[1]; [9],66.8 ng·h/mL/mg
same,"Cmax / D, geometric mean",[1]; [9],6.3 ng/mL/mg
same,"AUC0–24 / D, ratio with/without CFTR modulator (90% CI)","[1]; Day 28, geometric mean ratio",1.12 (0.82–1.52)
same,"AUC0–24 / D, geometric mean",[1]; [10],134.2 ng·h/mL/mg
same,"AUClast / D, geometric mean",[1]; [10],295.1 ng·h/mL/mg
same,"Cmax / D, geometric mean","[1]; Day 28, with CFTR modulator, n = 17",10.2^a ng/mL/mg
same,"AUC0–24 / D, geometric mean",[1]; [11],120.2 ng·h/mL/mg
same,"AUClast / D, geometric mean",[1]; [11],271.3 ng·h/mL/mg
same,"Cmax / D, geometric mean",[1]; [11],8.8 ng/mL/mg
same,"inter-participant variability (coefficient of variation) in Cmax, AUC0–24 and t1/2",[1]; generally within,15–50%
same,AUC(0-t),"[1]; human, plasma, oral, 10 mg, 10 mg QD, Day 1, n = 8, mean (CV%), read-out: AUC0–24",879 ng·h/mL
same,AUC(0-t),"[1]; human, plasma, oral, 10 mg, 10 mg QD, Day 1, n = 8, mean (CV%), read-out: AUClast",879 ng·h/mL
same,Cmax,"[1]; human, plasma, oral, 10 mg, 10 mg QD, Day 1, n = 8, mean (CV%), with/without CFTR modulators, read-out: Cmax",67.3 ng/mL
same,AUC(0-t),"[1]; human, plasma, oral, 10 mg, 10 mg QD, Day 28, n = 8, mean (CV%), read-out: AUC0–24",1100 ng·h/mL
same,AUC(0-t),"[1]; human, plasma, oral, 10 mg, 10 mg QD, Day 28, n = 8, mean (CV%), read-out: AUClast",2380 ng·h/mL
same,AUC(0-t),"[1]; human, plasma, oral, 25 mg, 25 mg QD, Day 1, n = 8, mean (CV%), read-out: AUC0–24",1630 ng·h/mL
same,AUC(0-t),"[1]; human, plasma, oral, 25 mg, 25 mg QD, Day 1, n = 8, mean (CV%), read-out: AUClast",1630 ng·h/mL
same,AUC(0-t),"[1]; human, plasma, oral, 25 mg, 25 mg QD, Day 28, n = 7, mean (CV%), read-out: AUC0–24",3800 ng·h/mL
same,AUC(0-t),"[1]; human, plasma, oral, 25 mg, 25 mg QD, Day 28, n = 7, mean (CV%), read-out: AUClast",8930 ng·h/mL
same,Cmax,"[1]; human, plasma, oral, 25 mg, 25 mg QD, Day 28, n = 7, mean (CV%), read-out: Cmax",249 ng/mL
same,AUC(0-t),"[1]; human, plasma, oral, 40 mg, 40 mg QD, Day 1, n = 8, mean (CV%), read-out: AUC0–24",3690 ng·h/mL
same,AUC(0-t),"[1]; human, plasma, oral, 40 mg, 40 mg QD, Day 1, n = 8, mean (CV%), read-out: AUClast",3690 ng·h/mL
same,Cmax,"[1]; human, plasma, oral, 40 mg, 40 mg QD, Day 1, n = 8, mean (CV%), read-out: Cmax",342 ng/mL
same,AUC(0-t),"[1]; human, plasma, oral, 40 mg, 40 mg QD, Day 28, n = 8, mean (CV%), read-out: AUC0–24",6320 ng·h/mL
same,AUC(0-t),"[1]; human, plasma, oral, 40 mg, 40 mg QD, Day 28, n = 8, mean (CV%), read-out: AUClast",15300 ng·h/mL
same,Cmax,"[1]; human, plasma, oral, 40 mg, 40 mg QD, Day 28, n = 8, mean (CV%), read-out: Cmax",490 ng/mL
same,AUC(0-t),"[1]; human, plasma, oral, day 1, CFTR modulator stratum, 10-40 mg QD, read-out: mean AUC0–24 across brensocatib dose groups",798 to 4120 ng·h/mL
same,AUC(0-t),"[1]; human, plasma, oral, day 1, CFTR modulator stratum, 10-40 mg QD, read-out: mean AUClast across brensocatib dose groups",798 to 4120 ng·h/mL
same,Cmax,"[1]; human, plasma, oral, day 1, CFTR modulator stratum, 10-40 mg QD, read-out: mean Cmax across brensocatib dose groups",60.9 to 365 ng/mL
same,AUC(0-t),"[1]; human, plasma, oral, day 1, non-CFTR modulator stratum, 10-40 mg QD, read-out: mean AUC0–24 across brensocatib dose groups",1120 to 2400 ng·h/mL
same,AUC(0-t),"[1]; human, plasma, oral, day 1, non-CFTR modulator stratum, 10-40 mg QD, read-out: mean AUClast across brensocatib dose groups",1120 to 2400 ng·h/mL
same,Cmax,"[1]; human, plasma, oral, day 1, non-CFTR modulator stratum, 10-40 mg QD, read-out: mean Cmax across brensocatib dose groups",86.4 to 274 ng/mL
same,AUC(0-t),"[1]; human, plasma, oral, day 28, CFTR modulator stratum, 10-40 mg QD, read-out: mean AUC0–24 across brensocatib dose groups",1080 to 7360 ng·h/mL
same,AUC(0-t),"[1]; human, plasma, oral, day 28, CFTR modulator stratum, 10-40 mg QD, read-out: mean AUClast across brensocatib dose groups",2440 to 17700 ng·h/mL
same,Cmax,"[1]; human, plasma, oral, day 28, CFTR modulator stratum, 10-40 mg QD, read-out: mean Cmax across brensocatib dose groups",92 to 538 ng/mL
same,AUC(0-t),"[1]; human, plasma, oral, day 28, non-CFTR modulator stratum, 10-40 mg QD, read-out: mean AUC0–24 across brensocatib dose groups",1190 to 3740 ng·h/mL
same,AUC(0-t),"[1]; human, plasma, oral, day 28, non-CFTR modulator stratum, 10-40 mg QD, read-out: mean AUClast across brensocatib dose groups",2210 to 9540 ng·h/mL
same,Cmax,"[1]; human, plasma, oral, day 28, non-CFTR modulator stratum, 10-40 mg QD, read-out: mean Cmax across brensocatib dose groups",84.3 to 348 ng/mL
same,AUC(0-inf),[1]; [12],2430 ng·h/mL
same,Vd/F,[1]; [12],423 L
same,half-life,"[1]; human, plasma, oral, 10 mg QD, Day 28, n = 8, mean (CV%), read-out: t1/2 (converted)",30 h
same,Tmax,"[1]; human, plasma, oral, 10 mg QD, Day 28, n = 8, median (range), read-out: Tmax",1.9 h
same,AUC(0-inf),[1]; [13],9300 ng·h/mL
same,Vd/F,[1]; [13],332 L
same,half-life,"[1]; human, plasma, oral, 25 mg QD, Day 28, n = 7, mean (CV%), read-out: t1/2 (converted)",33.1 h
same,AUC(0-inf),[1]; [14],16200 ng·h/mL
same,Vd/F,[1]; [14],398 L
same,half-life,"[1]; human, plasma, oral, 40 mg QD, Day 28, n = 8, mean (CV%), read-out: t1/2 (converted)",38.5 h
same,Tmax,"[1]; human, plasma, oral, day 1 (after the first dose) and day 28 (steady state), across doses, read-out: median Tmax postdose",1.5 to 2 h
same,half-life,"[1]; human, plasma, oral, range over CFTR modulator and non-CFTR modulator strata, read-out: elimination t1/2",24.7 to 49.5 h
same,"PR3, median % reduction relative to baseline","[2]; 10 mg QD, n = 6",17.3 (n = 6) %
same,"PR3, median % reduction relative to baseline","[2]; 25 mg QD, n = 7",40.8 (n = 7) %
same,"PR3, median % reduction relative to baseline","[2]; 40 mg QD, n = 7",55.0 (n = 7) %
same,median percent reduction of PR3 activity in blood,[2]; over the dose range of 10–40 mg QD,17–55%
